Measurements as given in US10050214B2, “Near-ultraviolet stimulated light-emitting compound and production method for same” (NANO CMS CO., LTD., priority 2014, dated 2018).

Tests used:
Format in all cases: physicochemical
[1] = Residual fluorescent intensity after artificial light exposure (ASTM G 154-06 Cycle 1)
Experimental: The obtained quinazolinone compound was irradiated with near-UV light in the wavelength of 365 nm, and the intensity of discharged fluorescence was measured. The fluorescent intensity was measured using a fluorescence spectrometer (DARSA-5000, PSI Co., Ltd.), under the condition of 365 nm stimulation wavelength, cumulative average of five-time measurements, and 1024×128 CCD sensor shape. In addition, measurement of residual fluorescent intensity after artificial light exposure was repeated identically according to ASTM G 154-06 Cycle 1 standard.

[2] = Solubility in organic solvents (eight product items); conditions: for Solubility, 2% Sodium Hydroxide (Caustic Soda) Solution: 2% Sodium Hydroxide solution; for solubility in organic solvents (in words): summary of TABLE 3
Experimental: (§1) Further, the melting point was measured using the melting point measuring instrument (M5000, KRÜSS GmbH), by assuming that the phase change is at the point where the change in transmissivity reaches 20%. Solubility in organic solvents was measured with respect to eight product items.

[3] = Chemical resistance and solvent resistance tests on printed material; conditions: summary of TABLE 4; printed material with 10% compound
Experimental: (§2) In addition, compositions respectively containing 10% compounds of embodiments 6 and 11 were sealed on a non-florescent paper, using a grinder and an offset plate printing press (HFT-225, HONGFAT machinery manufacturing Co., Ltd.). Chemical resistance tests and solvent resistance tests were performed on the printed material for 30 minutes at 23° C. with respect to each of nine product items. Furthermore, grades with reference to the standard and remaining fluorescence intensities were measured by irradiating the near-ultraviolet light of 365 nm wavelength, using a weatherability tester (QUV, Q-LAB Corporation), according to ASTM G154-06 Cycle No. 1 standard (except for the condensation conditions).

[4] = Weatherability test (QUV tester, ASTM G154-06 Cycle No. 1); conditions: in words
Experimental: as §2

[5] = Thermal stability (melting point measuring instrument); conditions: summary of TABLE 3
Experimental: as §1

Compound	The remaining fluorescence intensity (after artificial light exposure) Coating (10%) [1]	other results
O=c1[nH]c(-c2cc(Cl)ccc2O)nc2cc(Cl)ccc12 [Embodiment 6, 7-chloro-2-(5-chloro-2-hydroxyphenyl)quinazoline-4(3H)-on]	70%	Solubility, 2% Sodium Hydroxide (Caustic Soda) Solution [2]: Resolved; solubility in organic solvents (in words) [2]: low; solvent resistance (in words) [3]: high solvent resistance; light fastness grade and remaining fluorescence intensity compared with conventional commercial products [4]: higher light fastness grade and remaining fluorescence intensity than those of conventional commercial products; thermal stability (in words) [5]: high
O=c1[nH]c(-c2ccc(Cl)cc2O)nc2cc(Cl)ccc12 [Embodiment 12, 7-chloro-2-(4-chloro-2-hydroxyphenyl)quinazoline-4(3H)-on]	40%	–
O=c1[nH]c(-c2c(O)cccc2Cl)nc2ccccc12 [Embodiment 16, 2-(2-chloro-6-hyrdoxyphenyl)quinazoline-4(3H)-on]	60%	–
O=c1[nH]c(-c2ccc(Cl)cc2O)nc2ccc(Cl)cc12 [Embodiment 11, 6-chloro-2-(4-chloro-2-hydroxyphenyl)quinazoline-4(3H)-on]	70%	Solubility, 2% Sodium Hydroxide (Caustic Soda) Solution [2]: Resolved; solubility in organic solvents (in words) [2]: low; solvent resistance (in words) [3]: high solvent resistance; light fastness grade and remaining fluorescence intensity compared with conventional commercial products [4]: higher light fastness grade and remaining fluorescence intensity than those of conventional commercial products; thermal stability (in words) [5]: high
O=c1[nH]c(-c2cc(Cl)ccc2O)nc2ccc(Cl)cc12 [Embodiment 5, 6-choloro-2-(5-chloro-2-hydroxyphenyl)quinazoline-4(3H)-on]	80%	–

Now from value to molecule, other results behind:

The remaining fluorescence intensity (after artificial light exposure) Coating (10%) [1]	Compound	other results
60%	O=c1[nH]c(-c2ccc(Cl)cc2O)nc2ccccc12 [Embodiment 10, 2-(4-chloro-2-hydroxyphenyl)quinazoline-4(3H)-on]	–
60%	O=c1[nH]c(-c2cccc(Cl)c2O)nc2ccccc12 [Embodiment 17, 2-(3-choloro-2-hydroxyphenyl)quinazoline-4(3H)-on]	–
45%	COc1ccc(-c2nc3ccc(Cl)cc3c(=O)[nH]2)c(O)c1 [Embodiment 8, 6-chloro-2-(2-hydroxy-4-methoxyphenyl)quinazoline-4(3H)-on]	–
65%	O=c1[nH]c(-c2cc(Cl)ccc2O)nc2ccccc12 [Embodiment 4, 2-(5-chloro-2-hydroxyphenyl)quinazoline-4(3H)-on]	–
40%	COc1ccc(-c2nc3ccccc3c(=O)[nH]2)c(O)c1 [Embodiment 7, 2-(2-hydroxy-4-methoxyphenyl)quinazoline-4-(3H)-on]	–
65%	O=c1[nH]c(-c2cc(F)ccc2O)nc2ccccc12 [Embodiment 13, 2-(5-fluoro-2-hyroxyphenyl)quinazoline-4(3H)-on]	–
